Assay results taken from publication PMC6009875, “Structure–activity relationships of fraxamoside as an unusual xanthine oxidase inhibitor” (Journal of Enzyme Inhibition and Medicinal Chemistry, 2017).
Like-named read-outs stand apart in the source and are kept apart here. Values belong to the compound of their own block, whether it stands above or below them.

Key:
[1] = molecular target: T1, Xanthine oxidase from bovine milk (Bos taurus, UniProt P80457); experiment: XO inhibition kinetics (Lineweaver-Burk, Ki); format: biochemical; details: for Inhibition mode: Lineweaver-Burk plots
T1 construct: Xanthine oxidase from bovine milk (0.2 U/mg); purchased Sigma-Aldrich (St. Louis, MO); host or cells: bovine milk
Experimental: The assay was carried out in a 500-μL final volume buffer A, constituted by 50 mM phosphate buffer, pH 7.8, 0.1 mM EDTA, supplemented with increasing concentration of xanthine as substrate in the absence or in the presence of variable amounts of the selected inhibitor. The assay was initiated by adding 10 μL of 160 U/L XO solution to the reaction mixture, without or with inhibitors, and it was followed in kinetics by reading the absorbance up to 2 min at 20 °C, thus calculating the rate of acid uric formation in the linear range of the reaction. The kinetic parameters of the XO reaction were derived from Lineweaver–Burk plots obtained measuring the rate of uric acid formation at different xanthine concentration (ranging between 0.4 and10 μM). Inhibition studies were carried out by measuring the kinetic parameters in the presence of different inhibitors. […] Km/Ki + Km.
The kinetic parameters of XO were determined by Lineweaver–Burk plot using a standard curve-fitting program. At each single concentration of substrate, the activity was evaluated in triplicate. […] Correlation and regression analyses and statistical analysis were made with Student’s t-test, using the software KaleidaGraph (Reading, PA). p values lower than 0.05 were considered to be significant.

[2] = molecular target: T1, Xanthine oxidase from bovine milk; experiment: XO activity assay (IC50, uric acid formation at 295 nm); format: biochemical; details: total absence of methanol; 50 μM xanthine, pH 7.8, 20 °C
Experimental: The assay was carried out in a 500 μL final volume reaction mixture, containing 50 mM phosphate buffer, pH 7.8, 0.1 mM EDTA, 50 μM xanthine as substrate, 3.2 U/L XO, and different amounts of each compound as potential XO inhibitor. The assay was started by adding 10 μL of the enzyme stock solution to the reaction mixture and followed by reading the absorbance up to 2 min at 20 °C, thus calculating the corresponding rate in the linear range of the reaction. For each sample, the extent of the inhibitory effect (i) was calculated as i = (V0 – Vi)/V0 where V0 and Vi are respectively the rate measured in the absence or presence at least six different amounts of the compounds used [I], whose range of concentration was properly chosen.

XO [3] = tested on: XO; set-up: method as in Flemmig et al.[52]; details: ref Flemmig et al.[52], cited from earlier work
XO [4] = tested on: XO; set-up: method as in PMID 25102361; details: read-out: IC50 (XO inhibitory effect); cited from earlier work

T1 sequence (P80457 whole entry): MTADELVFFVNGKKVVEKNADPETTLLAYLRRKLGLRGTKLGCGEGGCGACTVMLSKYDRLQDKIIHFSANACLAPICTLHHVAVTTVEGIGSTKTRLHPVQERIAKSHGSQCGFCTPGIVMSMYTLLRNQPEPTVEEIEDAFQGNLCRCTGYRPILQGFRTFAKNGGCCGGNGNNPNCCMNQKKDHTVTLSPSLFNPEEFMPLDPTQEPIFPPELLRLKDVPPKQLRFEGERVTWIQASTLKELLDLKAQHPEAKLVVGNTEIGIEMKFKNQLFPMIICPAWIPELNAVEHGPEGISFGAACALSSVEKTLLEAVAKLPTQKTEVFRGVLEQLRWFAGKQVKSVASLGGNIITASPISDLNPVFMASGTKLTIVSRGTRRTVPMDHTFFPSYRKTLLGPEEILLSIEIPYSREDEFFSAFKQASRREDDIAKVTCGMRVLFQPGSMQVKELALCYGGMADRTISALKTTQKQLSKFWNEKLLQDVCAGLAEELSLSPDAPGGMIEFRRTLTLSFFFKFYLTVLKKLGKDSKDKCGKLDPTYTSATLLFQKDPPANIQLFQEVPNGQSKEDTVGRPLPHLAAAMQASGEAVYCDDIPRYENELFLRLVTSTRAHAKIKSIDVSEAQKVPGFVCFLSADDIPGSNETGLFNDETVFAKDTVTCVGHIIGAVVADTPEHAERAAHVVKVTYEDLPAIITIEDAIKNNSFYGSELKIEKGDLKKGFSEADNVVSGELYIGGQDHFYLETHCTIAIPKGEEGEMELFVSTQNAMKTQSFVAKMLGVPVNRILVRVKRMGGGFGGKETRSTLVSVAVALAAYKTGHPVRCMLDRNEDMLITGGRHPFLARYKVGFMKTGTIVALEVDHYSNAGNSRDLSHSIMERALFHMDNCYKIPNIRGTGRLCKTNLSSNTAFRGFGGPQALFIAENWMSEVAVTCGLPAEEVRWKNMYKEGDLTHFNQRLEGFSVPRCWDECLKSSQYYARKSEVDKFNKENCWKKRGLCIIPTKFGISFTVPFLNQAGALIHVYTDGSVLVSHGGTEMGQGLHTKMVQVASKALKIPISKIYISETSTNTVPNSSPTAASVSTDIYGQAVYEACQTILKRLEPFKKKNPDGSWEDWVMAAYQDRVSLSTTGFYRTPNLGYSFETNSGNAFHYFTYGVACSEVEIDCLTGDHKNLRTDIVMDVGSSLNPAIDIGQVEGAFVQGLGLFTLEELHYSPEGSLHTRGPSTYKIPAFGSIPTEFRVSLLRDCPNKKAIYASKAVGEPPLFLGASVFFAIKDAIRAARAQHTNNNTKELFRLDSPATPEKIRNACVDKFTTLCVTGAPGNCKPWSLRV

Structure (SMILES): Oc1ncnc2[nH]ncc12 [Allopurinol, allopurinol, reference compound]
Inhibition mode [1]: competitive inhibition mode

Structure (SMILES): OCCc1ccc(O)c(O)c1 [Compound 4, hydroxytyrosol]
IC50 [2]: 1130 ± 22 µM
Ki (XO [3]): No inhibition^a

Structure (SMILES): O=c1c(O[C@@H]2O[C@H](CO)[C@@H](O)[C@H](O)[C@H]2O)c(-c2ccc(O)c(O)c2)oc2cc(O)cc(O)c12 [quercetin 3-O-glucoside]
IC50 (XO [4]): 54.6 µM

Structure (SMILES): O=c1c(O)c(-c2ccc(O)c(O)c2)oc2cc(O)cc(O)c12 [quercetin]
IC50 (XO [4]): 1.9 µM

The next lines start with results.

IC50 [2]: 16.1 ± 0.7 µM
Inhibition mode [1]: Competitive
Inhibition mode ([1]; listed as fraxamoside): competitively inhibited
Ki lower than that of oleuropein (fold) ([1]; fraxamoside Ki versus oleuropein Ki): at least 50 times
Ki ([1]; secondary plot of K'm versus [I], xanthine 0.4-10 μM, pH 7.8, 20 °C): 900 ± 250 nM
Structure (SMILES): C/C=C1/[C@H]2OC=C(C(=O)OC)[C@H]1CC(=O)OC[C@@H](c1ccc(O)c(O)c1)OC[C@H]1O[C@@H](O2)[C@H](O)[C@@H](O)[C@@H]1O [Compound 1, fraxamoside]

IC50 [2]: 335 ± 17 µM
Structure (SMILES): C/C=C1/[C@H](O[C@@H]2O[C@H](CO)[C@@H](O)[C@H](O)[C@H]2O)OC=C(C(=O)OC)[C@H]1CC(=O)OCCc1ccc(O)c(O)c1 [Compound 2, oleuropein]
Inhibition mode (XO [3]): Competitive^a
Inhibition mode (XO [3]; listed as oleuropein): competitive inhibition mode
Ki (XO [3]; read-out: Ki): 53 µM

IC50 [2]: 259 ± 13 µM
Structure (SMILES): C/C=C1/[C@H](O[C@@H]2O[C@H](CO)[C@@H](O)[C@H](O)[C@H]2O)OC=C(C(=O)OC)[C@H]1CC(=O)O [Compound 3, oleoside 11-methyl ester]
